# Data taken from patent US20140248291A1, “Modulation of Cellular Migration” (THE UAB RESEARCH FOUNDATION, priority 2011, published 2014).
# What was measured:
# B2R = target: T1, B2R (Homo sapiens, UniProt P30411); test: calcium imaging (Fura-2), BK response with B2R antagonists; type: cell-based; settings: BK in presence of the B2R antagonist; for average peak of Ca2+ response: p<0.001 vs BK
# T1 construct: endogenous in cells; host or cells: D54-MG / D54-MG-GFP human glioma cells
# T1 sequence (P30411 1-391): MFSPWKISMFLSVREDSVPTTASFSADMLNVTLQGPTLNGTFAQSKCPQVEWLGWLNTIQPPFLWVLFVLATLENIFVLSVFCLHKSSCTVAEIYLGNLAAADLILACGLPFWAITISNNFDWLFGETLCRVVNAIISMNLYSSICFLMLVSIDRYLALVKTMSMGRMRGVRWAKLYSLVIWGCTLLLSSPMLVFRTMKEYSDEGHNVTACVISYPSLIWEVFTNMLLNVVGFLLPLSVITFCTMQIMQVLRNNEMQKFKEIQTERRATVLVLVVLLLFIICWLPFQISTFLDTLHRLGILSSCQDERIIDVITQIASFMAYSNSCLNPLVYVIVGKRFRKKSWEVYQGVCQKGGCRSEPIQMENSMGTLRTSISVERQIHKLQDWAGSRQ
# Method: D54-MG cells were plated on 35-mm glass bottom dishes (MatTek, Corp., Ashland, Mass.) at ˜100×10^3 per dish and cultured for 2 days. pTRIPZ transfected cells, after stable selection, were plated at a density of ˜20×10^3 per dish and treated with […] doxycycline for 4 to 5 days to allow for sufficient protein knockdown. All cells were loaded in serum-free culture medium for 45 min with the ratiometric Ca^2+ dye Fura-2-acetoxymethylester (5 μmol/L; TEFLABS, Austin, Tex.) reconstituted in 20% wiv pluronic acid in DMSO (Invitrogen, Carlsbad, Calif.). Cells were rinsed with serum-free medium and allowed to rest in 7% serum-containing medium for 45 min at 37° C. The glass-bottom dishes were placed in an environmental chamber mounted on an inverted microscope. Cells were allowed to equilibrate in the chamber for 15 min before calcium images were collected. Following equilibration, recordings were obtained with an Olympus Disk Spinning Unit (DSU) fluorescent imaging microscope where cells were alternately excited at 340 and 380 nm using an x-cite illumination light source. Emitted light was collected at >520 nm. Images were digitized online using Slidebook 4.2 software (Intelligent Imaging Innovations, Denver, Colo.), and 340:380 nm ratios were obtained every 15 seconds. Following a 5 minute baseline recording every 15 seconds, BK was applied to the cells and imaging continued every 15 seconds for 30 or 60 minutes. In a subset of experiments, BK antagonists, HOE-140 and Bradyzide were applied to the cells. These experiments were repeated at least three times and data were pooled for statistical analysis.
# Glioma cells respond to environmental clues as they invade the brain. It has been previously shown that the exposure of glioma cells to certain neuroligands induces increase in intracellular calcium concentrations. In this series of experiments, we investigated Ca^2+-responses in cultured D54-MG glioma cells, after addition of acetylcholine (ACh), ATP or BK. Glioma cells were loaded with the ratiometric Ca^2+-dye FURA2-AM, and imaged over 30 min.
# D54-MG-GFP cells = test: time-lapse motility assay in BK concentration gradient, D54-MG-GFP; type: cell-based, human; settings: for cells moved towards increasing BK concentration: BK gradient in presence of antagonist, cells moving in random fashion; for directionality of movement: antagonist in addition to BK
# Method: Time-lapse studies were performed using a stably transfected daughter cell line from D54-MG cells that express EGFP, previously generated in the lab (Habela et al., 2009) and U251-EGFP cell line to visualize cells as they migrate. Increased motility was tested using an Ibidi chemotaxis chamber that is commercially available from Ibidi Scientific (Ibidi GmbH, Martinsried, Germany), and which has been used in previous studies (Kronlage et al., 2010; Fabian et al., 2010) with D54-EGFP MG cells seeded. Liquid chemical gradients were established in the μ-channel of the μ-chamber as follows: the dye Patent Blue V Blue Sodium Salt (1 mg/ml in medium) was mixed with equivolume of medium+/−1 mM stock of BK+/−1 mM stocks of HOE-140 or BZ; half of the volume was loaded in the well at one side of the μ-channel, and the identical volume was then aspirated from the well on the other side of the μ-channel. This created concentration gradient easily visualized by the dye. 12-15 different positions along the concentration gradient were imaged every 5 minutes over 5 hours period on a Zeiss Axiovert 200M system equipped with a Zeiss micro-incubation chamber that maintains cells at constant temperature (37° C.) and 95%/5% CO2/O2 for extended periods of time. We obtained images from different sections using 20× objective and FITC filter, along with DIC images. 500× neutral density filters and capture images using Axiovision software and a digital Axiocam HR 1 megapixel camera in 2*2 binning mode was used. Data was analyzed using the imaging tools provided by National Institutes of Health Image J and Tracking, and Chemotaxis and Migration Tool plugins (Jacobelli et al., 2009; Coller et al., 2009; Kronlage et al., 2010; Fabian et al., 2010) by randomly selecting 15 cells for each field of view. Cells treated with BK+/−antagonists were compared with controls where only dye was added. These experiments were repeated in triplicates.
# As calcium dynamics are often correlated with cell motility time-lapse studies were performed using a stably transfected daughter cell line from D54-MG cells that expresses GFP to visualize cells as they migrate (FIG. 3A). Increased motility was tested in μ-slides in which a BK concentration gradient can be maintained.
# [1] = test system: MMP gelatinase activity of D54 MG cells; test: in-situ zymography of gelatinolytic MMP activity (DQ gelatin); type: cell-based, human; settings: BK plus B2R antagonist
# Method: To assess gelatinolytic MMP activity we used in situ zymography, as described previously (Deshane J et al, 2003). Briefly, after cell nuclei were labeled with Hoechst dye, fluorescein isothiocyanate-labeled DQ gelatin with BK+/−antagonists (Molecular Probes, Eugene, Oreg.) was applied overnight on the coverslips plated with D54 MG cells. Coverslips where drugs were omitted were processed in parallel and used as controls. At the end of the incubation period, cells were photographed by fluorescence microscopy with a Zeiss Axiovert 200 M microscope using a 20× objective. Quantification of fluorescent staining intensity after background subtraction was done using Slidebook 4.2 software (Intelligent Imaging Innovations, Denver, Colo.). Experiments were repeated three times.
# To investigate the hypothesis that BK promotes glioma migration in vitro, we used Transwell migration assay which conveniently permit examination of cell migration across a membrane barrier with 8 μm pores towards vitronectin, a chemo-attractant extracellular matrix protein. This frequently used assay allows a quantitative study of drug effects with regards to drugs acting as motogens or as chemo-attractants. D54-MG-GFP glioma cells were allowed to migrate for 5 h in the presence/absence of neuroligands. […] Next, we tested glioma cell migration in various BK concentrations. […]
SMILES,cells responded / cells imaged (B2R),average peak of Ca2+ response (B2R),cells moved towards increasing BK concentration (D54-MG-GFP cells),directionality of movement (D54-MG-GFP cells),MMP activity (fluorescence of DQ gelatin) [1]
CN(C)CCN(C)CCNC(=O)[C@@H]1CCCN1S(=O)(=O)c1ccc(NNC(=S)NC(c2ccccc2)c2ccccc2)c([N+](=O)[O-])c1 [Bradyzide],156/300,0.15±0.02,6/15,failed to show any directionality of movement,reduction of the fluorescence back to control levels
"N=C(N)NCCCC(NC(=O)[C@H](N)CCCNC(=N)N)C(=O)N1CCC[C@H]1C(=O)N1C[C@H](O)C[C@H]1C(=O)NCC(=O)N[C@@H](Cc1cccs1)C(=O)N[C@@H](CO)C(=O)N1Cc2ccccc2C[C@@H]1C(=O)N1C2CCCCC2C[C@H]1C(=O)N[C@H](CCCNC(=N)N)C(=O)O (stereo partly drawn) [HOE-140, D-Arg-[Hyp^3, Thi^5, D-Tic^7, Oic^8]bradykinin]",22/162,0.15±0.01,8/15,failed to show any directionality of movement,reduction of the fluorescence back to control levels
